What all share (assay type): functional
The test system of assay [1] is Staphylococcus aureus. The assay is described as follows: Antimicrobial activity against Staphylococcus aureus ATCC 29213 incubated for 24 hrs by CLSI-based dilution method. To be noted: ATCC 29213, 24 h.
The subject of assay [2] is Staphylococcus aureus. Description: Antimicrobial activity against methicillin-resistant Staphylococcus aureus ATCC 700699 incubated for 24 hrs by CLSI-based broth microdilution method. Particulars: ATCC 700699, 24 h.
The test system of assay [3] is Klebsiella pneumoniae. Description: Antimicrobial activity against Klebsiella pneumoniae ATCC 27736 incubated for 24 hrs by CLSI-based broth microdilution method. To be noted: ATCC 27736, 24 h. Background: Broth dilution looks for growth in wells or tubes with falling amounts of substance.
In assay [4] the test system is Pseudomonas aeruginosa. The assay is described as follows: Antimicrobial activity against Pseudomonas aeruginosa ATCC BAA-427 incubated for 24 hrs by CLSI-based broth microdilution method. To be noted: ATCC BAA-427, 24 h.
Assay [5] has as its system Staphylococcus aureus. The assay is described as follows: Antimicrobial activity against gentamicin-resistant Staphylococcus aureus ATCC 33592 incubated for 24 hrs by CLSI-based broth microdilution method. To be noted: ATCC 33592, 24 h.
In assay [6] the test system is Staphylococcus aureus. The assay is described as follows: Antimicrobial activity against Staphylococcus aureus ATCC 25923 incubated for 24 hrs by CLSI-based dilution method. Particulars: ATCC 25923, 24 h.
The subject of assay [7] is Escherichia coli. The assay is described as follows: Antimicrobial activity against Escherichia coli ATCC 9637 incubated for 24 hrs by CLSI-based broth microdilution method. To be noted: W ATCC 9637, 24 h.
Another assay has as its system Moraxella catarrhalis. The assay is described as follows: Antimicrobial activity against Moraxella catarrhalis ATCC 25238 incubated for 24 hrs by serial dilution method. Particulars: ATCC 25238, 24 h.
In the next assay the test system is PANC-1. Description: Growth inhibition of human PANC1 cells at 10 uM incubated for 48 hrs by MTT assay. Particulars: PANC-1, 48 h, read-out: GI. A general note: Formazan colour is commonly taken as a measure of viable cells.
A further assay concerns HCT-116. Description: Growth inhibition of human HCT116 cells at 10 uM incubated for 48 hrs by MTT assay relative to control. Particulars: HCT-116, 48 h, read-out: GI.
In assay [8] the test system is Escherichia coli. Description: Antimicrobial activity against Escherichia coli ATCC 35218 incubated for 24 hrs by serial dilution method. To be noted: ATCC 35218, 24 h.
The test system of assay [9] is Staphylococcus aureus. The assay is described as follows: Antimicrobial activity against methicillin-resistant Staphylococcus aureus ATCC 33591 incubated for 24 hrs by serial dilution method. To be noted: ATCC 33591, 24 h.
A further assay concerns HeLa. Description: Growth inhibition of human HeLa cells at 10 uM incubated for 48 hrs by MTT assay relative to control. Particulars: read-out: GI.
In assay [10] the test system is Enterococcus faecalis. Description: Antimicrobial activity against Enterococcus faecalis ATCC 29212 incubated for 24 hrs by serial dilution method. To be noted: ATCC 29212, 24 h.
The subject of assay [11] is Staphylococcus aureus. Description: Antimicrobial activity against methicillin-susceptible Staphylococcus aureus ATCC 29213 incubated for 24 hrs by serial dilution method. Particulars: ATCC 29213, 24 h.
In assay [12] the test system is Klebsiella pneumoniae. The assay is described as follows: Antimicrobial activity against Klebsiella pneumoniae ATCC 35657 incubated for 24 hrs by serial dilution method. Particulars: ATCC 35657, 24 h.
The test system of another assay is A549. Description: Growth inhibition of human A549 cells at 10 uM incubated for 48 hrs by MTT assay relative to control. Particulars: A549, 48 h, read-out: GI.
The subject of assay [13] is Mycolicibacterium smegmatis. The assay is described as follows: Antimicrobial activity against Mycobacterium smegmatis ATCC 607 incubated for 48 to 72 hrs by microbroth dilution method.
In assay [14] the test system is Enterococcus faecalis. The assay is described as follows: Antimicrobial activity against Enterococcus faecalis ATCC 29212 incubated for 18 to 24 hrs by microbroth dilution method.
Assay [15] has as its system Staphylococcus aureus. The assay is described as follows: Antimicrobial activity against Staphylococcus aureus ATCC 25923 incubated for 18 to 24 hrs by microbroth dilution method.
Assay [16] has as its system Pseudomonas aeruginosa. The assay is described as follows: Antimicrobial activity against Pseudomonas aeruginosa ATCC 43288 incubated for 18 to 24 hrs by microbroth dilution method.
For the next assay, the system named is Bacillus cereus. The assay is described as follows: Antimicrobial activity against Bacillus cereus 709 Roma incubated for 18 to 24 hrs by microbroth dilution method.
For assay [17], the system named is Yersinia pseudotuberculosis. Description: Antimicrobial activity against Yersinia pseudotuberculosis ATCC 911 incubated for 18 to 24 hrs by microbroth dilution method.
In assay [18] the test system is Mycobacterium tuberculosis. Description: Antimicrobial activity against Mycobacterium tuberculosis H37Rv incubated for 10 days by microbroth dilution method. Particulars: 240 h.
For assay [19], the system named is Escherichia coli. Description: Antimicrobial activity against Escherichia coli ATCC […] by microdilution method.
In assay [20] the test system is Staphylococcus aureus. The assay is described as follows: Antimicrobial activity against methicillin-resistant Staphylococcus aureus ATCC 25923 by microdilution method.
Assay [21] relates to Staphylococcus aureus. The assay is described as follows: Antimicrobial activity against Staphylococcus aureus ATCC 29213 by microdilution method.
Assay [22] relates to Escherichia coli. The assay is described as follows: Antimicrobial activity against multidrug resistance Escherichia coli ATCC 35218 by microdilution method.

Each structure is given as a SMILES string. Converted amounts (≈) assume the structure as drawn.

What is called MIC is the smallest concentration in the dilution series that meets the test's criterion for growth inhibition. Low values mean greater potency, high ones weaker potency. As for `CCn1cc(C(=O)O)c(=O)c2cc(F)c(-n3cc(CO[C@H]4OC[C@@H](OC(C)=O)[C@@H](OC(C)=O)[C@H]4OC(C)=O)nn3)c(F)c21`, the MIC was 3.12 µg/mL (≈ 5.13 µM) in the assay with Staphylococcus aureus [1]; above 50 µg/mL against Staphylococcus aureus [2]; 3.12 µg/mL (≈ 5.13 µM) in the assay with Klebsiella pneumoniae [3]; above 50 µg/mL in the assay with Pseudomonas aeruginosa [4]; 3.12 µg/mL (≈ 5.13 µM) in the assay with Staphylococcus aureus [5]; 3.12 µg/mL (≈ 5.13 µM) in the assay on Staphylococcus aureus [6]. The compound further gave an MIC with Escherichia coli [7] of 6.25 µg/mL (≈ 10.3 µM).

In the case of `CN(C)Cc1cn(-c2cc3c(cc2F)c(=O)c(C(=O)NO)cn3C2CC2)nn1`, the MIC against Moraxella catarrhalis, in the assay with Escherichia coli [8], against Staphylococcus aureus [9], in the assay on Enterococcus faecalis [10], against Staphylococcus aureus [11] and against Klebsiella pneumoniae [12] was above 64 µg/mL each time. The inhibition of growth at 10 µM in the assay with PANC-1 amounted to 20%; in the assay with HCT-116 it was 15%; in the assay with HeLa it was 23%; with A549, 30%.

In the case of `CCn1cc(C(=O)O)c(=O)c2cc(F)c(N3CCN(Cn4nc(CN5CCN(c6ccc([N+](=O)[O-])cc6)CC5)n(-c5ccc(F)cc5)c4=O)CC3)cc21`, the MIC stood at 0.244 µg/mL (≈ 0.334 µM) in [13]; 0.122 µg/mL (≈ 0.167 µM) against Enterococcus faecalis [14]; 0.48 µg/mL (≈ 0.658 µM) with Staphylococcus aureus [15]; 0.24 µg/mL (≈ 0.329 µM) with Pseudomonas aeruginosa [16]; 0.12 µg/mL (≈ 0.164 µM) against Bacillus cereus; 0.12 µg/mL (≈ 0.164 µM) in [17].

Take `CCO/N=C1/CN(CCCn2cc(CN3CCCC4CN(c5c(F)cc6c(=O)c(C(=O)O)cn(C7CC7)c6c5OC)CC43)nn2)c2ccc(F)cc21` (stereo not given): the lowest concentration to inhibit growth in assay [18] (MIC) was 12.5 µg/mL (≈ 17.4 µM).

For `CCn1cc(C(=O)O)c(=O)c2cc(F)c(-n3cc(CO[C@H]4O[C@H](COC(C)=O)[C@@H](OC(C)=O)[C@H](OC(C)=O)[C@H]4OC(C)=O)nn3)c(F)c21`, the MIC in the assay with Staphylococcus aureus [1], in the assay with Staphylococcus aureus [2], with Klebsiella pneumoniae [3], in the assay on Pseudomonas aeruginosa [4], against Staphylococcus aureus [5] and in the assay with Staphylococcus aureus [6] was above 50 µg/mL throughout. The same compound registered a minimum inhibitory concentration (MIC) against Escherichia coli [7] above 50 µg/mL.

Regarding `CCn1cc(C(=O)O)c(=O)c2cc(F)c(-n3cc(CO[C@H]4O[C@H](COC(C)=O)[C@H](OC(C)=O)[C@H](OC(C)=O)[C@H]4OC(C)=O)nn3)c(F)c21`, the MIC with Staphylococcus aureus [1], in the assay with Staphylococcus aureus [2], against Klebsiella pneumoniae [3], in the assay with Pseudomonas aeruginosa [4], in the assay on Staphylococcus aureus [5] and in the assay on Staphylococcus aureus [6] was above 50 µg/mL each time. In the assay on Escherichia coli [7], this compound had an MIC of 12.5 µg/mL (≈ 18.4 µM).

In assay [18], `C[C@H]1COc2c(-c3cc4cc(Br)ccc4oc3=O)c(F)cc3c(=O)c(C(=O)O)cn1c23` gave a minimal inhibitory concentration (MIC) of 12.5 µg/mL (≈ 25.7 µM).

For `O=C(O)c1cn(C2CC2)c2c(cc(F)c3nn(CN(N4CCCCC4)N4CCCCC4)c(=O)n32)c1=O`, the MIC was at most 1 µg/mL against Escherichia coli [19], at most 8 µg/mL against Staphylococcus aureus [20], at most 1 µg/mL in the assay with Staphylococcus aureus [21] and at most 4 µg/mL in the assay on Escherichia coli [22].

Regarding `O=C(NO)c1cn(C2CC2)c2cc(-n3cc(CN4CCCCC4)nn3)c(F)cc2c1=O`, the MIC against Moraxella catarrhalis was 64 µg/mL (≈ 150 µM); against Escherichia coli [8], 64 µg/mL (≈ 150 µM); in the assay on Staphylococcus aureus [9] it was above 64 µg/mL; against Enterococcus faecalis [10] it was above 64 µg/mL; against Staphylococcus aureus [11], above 64 µg/mL; in the assay with Klebsiella pneumoniae [12], 64 µg/mL (≈ 150 µM). For the same compound, the inhibition of growth at 10 µM was 10% in the assay with PANC-1, 20% with HCT-116, 5% in the assay with HeLa and 10% with A549.

In the case of `CN(C)N(Cn1nc2c(F)cc3c(=O)c(C(=O)O)cn(C4CC4)c3n2c1=O)N(C)C`, the MIC was at most 1 µg/mL in the assay with Escherichia coli [19], at most 8 µg/mL in the assay with Staphylococcus aureus [20], at most 2 µg/mL in the assay with Staphylococcus aureus [21] and at most 4 µg/mL in the assay with Escherichia coli [22].

On to `O=C(O)c1cn(C2CC2)c2c(cc(F)c3nn(CN(N4CCOCC4)N4CCOCC4)c(=O)n32)c1=O`, for which the minimal inhibitory concentration (MIC) against Escherichia coli [19] was at most 0.25 µg/mL; against Staphylococcus aureus [20] it was at most 2 µg/mL; with Staphylococcus aureus [21], at most 0.25 µg/mL; against Escherichia coli [22], at most 2 µg/mL.

With `CCn1cc(C(=O)O)c(=O)c2cc(F)c(-n3cc(CO[C@H]4O[C@@H](C)[C@H](OC(C)=O)[C@@H](OC(C)=O)[C@H]4OC(C)=O)nn3)c(F)c21`, the MIC in the assay with Escherichia coli [19] is at most 4 µg/mL; in the assay with Staphylococcus aureus [20], at most 16 µg/mL; against Staphylococcus aureus [21], at most 4 µg/mL; against Escherichia coli [22] it was at most 16 µg/mL.

For the origin of these results see ChEMBL document CHEMBL4602605, “Fluoroquinolones structural and medicinal developments (2013-2018): Where are we now?” (Bioorg Med Chem, 2019).
